Reference: PubChem BioAssay (NCI)
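These data come from cells grown in 96-well plates and exposed to compound for 48 hours at five concentrations. TGI is the concentration that stops growth completely.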

These molecules were tested on HOP-18 NSCLC (assay: DTP human tumour cell line panel, 48 h).
With CN(C)/C=N/c1nc2c(ncn2C2OC(CO)C(O)C2O)c(=O)[nH]1 (stereo not given) the TGI was over 100 µM.

These molecules were tested on SK-MEL-28 melanoma (assay: DTP human tumour cell line panel, 48 h).
Work on O=[N+]([O-])c1ccc(C2=Nn3cnnc3SC2)o1 yielded a TGI of 31.1 µM. Work on S=C1NC2(CCCCCC2)NN1c1ccccc1 yielded a TGI of over 100 µM. For Cc1ccc(Cc2c(=O)[nH]nc3ccccc23)cc1, the TGI was over 100 µM. COc1cccc(/C=C/c2cc(OC)c(OC)c(OC)c2)c1 showed a TGI of over 100 µM. CO/N=C/c1cc(OC)c(OC)c(OC)c1 showed a TGI of over 100 µM. CN(C)c1ccc(C(C=C2c3ccccc3Sc3ccccc32)=C(C#N)C#N)cc1 showed a TGI of over 100 µM.

What follows are molecules tested on UACC-257 melanoma (assay: DTP human tumour cell line panel, 48 h).
Molecule O=[N+]([O-])c1ccc(C2=Nn3cnnc3SC2)o1 has a TGI of 29.6 µM. For S=C1NC2(CCCCCC2)NN1c1ccccc1, the TGI was over 100 µM. For Cc1ccc(Cc2c(=O)[nH]nc3ccccc23)cc1, the TGI was over 100 µM. Work on COc1cccc(/C=C/c2cc(OC)c(OC)c(OC)c2)c1 yielded a TGI of over 100 µM. CO/N=C/c1cc(OC)c(OC)c(OC)c1 showed a TGI of over 100 µM. In the case of CN(C)c1ccc(C(C=C2c3ccccc3Sc3ccccc32)=C(C#N)C#N)cc1, the TGI is reported as over 100 µM. In the case of CN(C)/C=N/c1nc2c(ncn2C2OC(CO)C(O)C2O)c(=O)[nH]1 (stereo not given), the TGI is reported as over 100 µM.

These molecules were tested on HOP-62 NSCLC (assay: DTP human tumour cell line panel, 48 h).
For O=[N+]([O-])c1ccc(C2=Nn3cnnc3SC2)o1, the TGI was 89.5 µM. Molecule S=C1NC2(CCCCCC2)NN1c1ccccc1 has a TGI of over 22.7 µM. Cc1ccc(Cc2c(=O)[nH]nc3ccccc23)cc1 gave a TGI of over 100 µM. Work on COc1cccc(/C=C/c2cc(OC)c(OC)c(OC)c2)c1 yielded a TGI of over 100 µM. CO/N=C/c1cc(OC)c(OC)c(OC)c1 showed a TGI of over 100 µM. For CN(C)c1ccc(C(C=C2c3ccccc3Sc3ccccc32)=C(C#N)C#N)cc1, the TGI was over 100 µM. CN(C)/C=N/c1nc2c(ncn2C2OC(CO)C(O)C2O)c(=O)[nH]1 (stereo not given) showed a TGI of over 100 µM.

Each molecule was assayed on SK-MEL-5 melanoma (assay: DTP human tumour cell line panel, 48 h).
Molecule O=[N+]([O-])c1ccc(C2=Nn3cnnc3SC2)o1 has a TGI of 31.5 µM. Molecule S=C1NC2(CCCCCC2)NN1c1ccccc1 has a TGI of over 100 µM. In the case of Cc1ccc(Cc2c(=O)[nH]nc3ccccc23)cc1, the TGI is reported as over 100 µM. Work on COc1cccc(/C=C/c2cc(OC)c(OC)c(OC)c2)c1 yielded a TGI of over 100 µM. CO/N=C/c1cc(OC)c(OC)c(OC)c1 showed a TGI of over 100 µM. For CN(C)c1ccc(C(C=C2c3ccccc3Sc3ccccc32)=C(C#N)C#N)cc1, the TGI was over 100 µM. CN(C)/C=N/c1nc2c(ncn2C2OC(CO)C(O)C2O)c(=O)[nH]1 (stereo not given) showed a TGI of over 100 µM.

These molecules were tested on MDA-N (assay: DTP human tumour cell line panel, 48 h).
With S=C1NC2(CCCCCC2)NN1c1ccccc1 the TGI was over 100 µM.

Each molecule was assayed on SNB-78 CNS (assay: DTP human tumour cell line panel, 48 h).
O=[N+]([O-])c1ccc(C2=Nn3cnnc3SC2)o1 gave a TGI of 51.9 µM. Work on Cc1ccc(Cc2c(=O)[nH]nc3ccccc23)cc1 yielded a TGI of over 100 µM. COc1cccc(/C=C/c2cc(OC)c(OC)c(OC)c2)c1 gave a TGI of over 100 µM. Work on CO/N=C/c1cc(OC)c(OC)c(OC)c1 yielded a TGI of over 100 µM. CN(C)c1ccc(C(C=C2c3ccccc3Sc3ccccc32)=C(C#N)C#N)cc1 gave a TGI of over 100 µM. CN(C)/C=N/c1nc2c(ncn2C2OC(CO)C(O)C2O)c(=O)[nH]1 (stereo not given) gave a TGI of over 100 µM.

These molecules were tested on SR leukemia (assay: DTP human tumour cell line panel, 48 h).
Work on O=[N+]([O-])c1ccc(C2=Nn3cnnc3SC2)o1 yielded a TGI of 39.4 µM. For S=C1NC2(CCCCCC2)NN1c1ccccc1, the TGI was over 100 µM. COc1cccc(/C=C/c2cc(OC)c(OC)c(OC)c2)c1 was tested, and the TGI was over 100 µM. Work on CO/N=C/c1cc(OC)c(OC)c(OC)c1 yielded a TGI of over 100 µM. With CN(C)/C=N/c1nc2c(ncn2C2OC(CO)C(O)C2O)c(=O)[nH]1 (stereo not given) the TGI was over 100 µM.

Each molecule was assayed on HOP-92 NSCLC (assay: DTP human tumour cell line panel, 48 h).
Molecule O=[N+]([O-])c1ccc(C2=Nn3cnnc3SC2)o1 has a TGI of 49.4 µM. S=C1NC2(CCCCCC2)NN1c1ccccc1 showed a TGI of over 100 µM. With Cc1ccc(Cc2c(=O)[nH]nc3ccccc23)cc1 the TGI was over 100 µM. In the case of COc1cccc(/C=C/c2cc(OC)c(OC)c(OC)c2)c1, the TGI is reported as over 100 µM. Work on CO/N=C/c1cc(OC)c(OC)c(OC)c1 yielded a TGI of over 100 µM. CN(C)/C=N/c1nc2c(ncn2C2OC(CO)C(O)C2O)c(=O)[nH]1 (stereo not given) showed a TGI of over 100 µM.

What follows are molecules tested on RXF 393 renal (assay: DTP human tumour cell line panel, 48 h).
O=[N+]([O-])c1ccc(C2=Nn3cnnc3SC2)o1 showed a TGI of 32.9 µM. CN(C)c1ccc(C(C=C2c3ccccc3Sc3ccccc32)=C(C#N)C#N)cc1 gave a TGI of over 100 µM. Work on CN(C)/C=N/c1nc2c(ncn2C2OC(CO)C(O)C2O)c(=O)[nH]1 (stereo not given) yielded a TGI of over 100 µM.

These molecules were tested on SF-539 CNS (assay: DTP human tumour cell line panel, 48 h).
For O=[N+]([O-])c1ccc(C2=Nn3cnnc3SC2)o1, the TGI was 36.3 µM. Cc1ccc(Cc2c(=O)[nH]nc3ccccc23)cc1 was tested, and the TGI was over 100 µM. Molecule COc1cccc(/C=C/c2cc(OC)c(OC)c(OC)c2)c1 has a TGI of over 100 µM. For CO/N=C/c1cc(OC)c(OC)c(OC)c1, the TGI was over 100 µM. For CN(C)c1ccc(C(C=C2c3ccccc3Sc3ccccc32)=C(C#N)C#N)cc1, the TGI was over 100 µM. In the case of CN(C)/C=N/c1nc2c(ncn2C2OC(CO)C(O)C2O)c(=O)[nH]1 (stereo not given), the TGI is reported as over 100 µM.

These molecules were tested on M14 melanoma (assay: DTP human tumour cell line panel, 48 h).
In the case of O=[N+]([O-])c1ccc(C2=Nn3cnnc3SC2)o1, the TGI is reported as 32.8 µM. In the case of S=C1NC2(CCCCCC2)NN1c1ccccc1, the TGI is reported as over 100 µM. Cc1ccc(Cc2c(=O)[nH]nc3ccccc23)cc1 was tested, and the TGI was over 100 µM. For COc1cccc(/C=C/c2cc(OC)c(OC)c(OC)c2)c1, the TGI was over 100 µM. CO/N=C/c1cc(OC)c(OC)c(OC)c1 gave a TGI of over 100 µM. Molecule CN(C)c1ccc(C(C=C2c3ccccc3Sc3ccccc32)=C(C#N)C#N)cc1 has a TGI of over 100 µM. CN(C)/C=N/c1nc2c(ncn2C2OC(CO)C(O)C2O)c(=O)[nH]1 (stereo not given) gave a TGI of over 100 µM.

The molecules below were run on BT-549 breast (assay: DTP human tumour cell line panel, 48 h).
S=C1NC2(CCCCCC2)NN1c1ccccc1 gave a TGI of over 100 µM.

The molecules below were run on DMS 273 small cell lung (assay: DTP human tumour cell line panel, 48 h).
Molecule O=[N+]([O-])c1ccc(C2=Nn3cnnc3SC2)o1 has a TGI of 36.3 µM. Cc1ccc(Cc2c(=O)[nH]nc3ccccc23)cc1 was tested, and the TGI was over 100 µM. Molecule COc1cccc(/C=C/c2cc(OC)c(OC)c(OC)c2)c1 has a TGI of over 100 µM. Molecule CO/N=C/c1cc(OC)c(OC)c(OC)c1 has a TGI of over 100 µM. Work on CN(C)c1ccc(C(C=C2c3ccccc3Sc3ccccc32)=C(C#N)C#N)cc1 yielded a TGI of over 100 µM. CN(C)/C=N/c1nc2c(ncn2C2OC(CO)C(O)C2O)c(=O)[nH]1 (stereo not given) was tested, and the TGI was over 100 µM.

Each molecule was assayed on OVCAR-5 ovarian (assay: DTP human tumour cell line panel, 48 h).
Work on O=[N+]([O-])c1ccc(C2=Nn3cnnc3SC2)o1 yielded a TGI of 36.8 µM. In the case of S=C1NC2(CCCCCC2)NN1c1ccccc1, the TGI is reported as over 100 µM. Molecule Cc1ccc(Cc2c(=O)[nH]nc3ccccc23)cc1 has a TGI of over 100 µM. For COc1cccc(/C=C/c2cc(OC)c(OC)c(OC)c2)c1, the TGI was over 100 µM. Molecule CO/N=C/c1cc(OC)c(OC)c(OC)c1 has a TGI of over 100 µM. Work on CN(C)c1ccc(C(C=C2c3ccccc3Sc3ccccc32)=C(C#N)C#N)cc1 yielded a TGI of over 100 µM. Molecule CN(C)/C=N/c1nc2c(ncn2C2OC(CO)C(O)C2O)c(=O)[nH]1 (stereo not given) has a TGI of over 100 µM.

What follows are molecules tested on LOX IMVI melanoma (assay: DTP human tumour cell line panel, 48 h).
Work on O=[N+]([O-])c1ccc(C2=Nn3cnnc3SC2)o1 yielded a TGI of 5.99 µM. Molecule S=C1NC2(CCCCCC2)NN1c1ccccc1 has a TGI of over 100 µM. Work on Cc1ccc(Cc2c(=O)[nH]nc3ccccc23)cc1 yielded a TGI of over 100 µM. With CO/N=C/c1cc(OC)c(OC)c(OC)c1 the TGI was over 100 µM. Work on CN(C)c1ccc(C(C=C2c3ccccc3Sc3ccccc32)=C(C#N)C#N)cc1 yielded a TGI of over 100 µM.

What follows are molecules tested on ACHN renal (assay: DTP human tumour cell line panel, 48 h).
In the case of O=[N+]([O-])c1ccc(C2=Nn3cnnc3SC2)o1, the TGI is reported as 29.4 µM. S=C1NC2(CCCCCC2)NN1c1ccccc1 was tested, and the TGI was over 100 µM. Work on Cc1ccc(Cc2c(=O)[nH]nc3ccccc23)cc1 yielded a TGI of over 100 µM. With COc1cccc(/C=C/c2cc(OC)c(OC)c(OC)c2)c1 the TGI was over 100 µM. CO/N=C/c1cc(OC)c(OC)c(OC)c1 showed a TGI of over 100 µM. Work on CN(C)c1ccc(C(C=C2c3ccccc3Sc3ccccc32)=C(C#N)C#N)cc1 yielded a TGI of over 100 µM. CN(C)/C=N/c1nc2c(ncn2C2OC(CO)C(O)C2O)c(=O)[nH]1 (stereo not given) gave a TGI of over 100 µM.

These molecules were tested on K-562 leukemia (assay: DTP human tumour cell line panel, 48 h).
Work on O=[N+]([O-])c1ccc(C2=Nn3cnnc3SC2)o1 yielded a TGI of 42.3 µM. Molecule S=C1NC2(CCCCCC2)NN1c1ccccc1 has a TGI of 16.6 µM. For Cc1ccc(Cc2c(=O)[nH]nc3ccccc23)cc1, the TGI was over 100 µM. For COc1cccc(/C=C/c2cc(OC)c(OC)c(OC)c2)c1, the TGI was over 100 µM. CO/N=C/c1cc(OC)c(OC)c(OC)c1 was tested, and the TGI was over 100 µM. For CN(C)c1ccc(C(C=C2c3ccccc3Sc3ccccc32)=C(C#N)C#N)cc1, the TGI was over 100 µM. CN(C)/C=N/c1nc2c(ncn2C2OC(CO)C(O)C2O)c(=O)[nH]1 (stereo not given) showed a TGI of over 100 µM.
